Structures are written as SMILES.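 Each compound was tested at five concentrations against cells in 96-well plates for 48 hours. GI50: concentration for 50% inhibition of growth. TGI denotes the concentration required for complete inhibition of growth.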

This assay deals with MDA-MB-468 breast. Nature of the assay: NCI anticancer screen, dose series, 48 h.
In the case of `Oc1ccc(Cl)cc1Cc1cc(Cl)cc(Cl)c1O`, the GI50 is 2.79 µM and the TGI is 9.41 µM.
`C=C(C)[C@@]12OC3(/C=C/C=C/CCCCC)O[C@@H]1[C@@H]1[C@@H]4O[C@]4(CO)[C@@H](O)[C@]4(O)C(=O)C(C)=C[C@H]4[C@@]1(O3)[C@H](C)[C@H]2OC(=O)c1ccccc1`: the GI50 was 1.37 µM and the TGI amounted to 2.92 µM.
Turning to `NCCCNc1nc2ccccc2c2c(=O)c3cc(OC(F)(F)F)ccc3sc12`, the GI50 is 1.76 µM and the TGI was 3.42 µM.
As to `COc1cc(Nc2cn[nH]c2-c2ccc(Cl)cc2)cc(OC)c1OC`, the GI50 was 1.6 µM and the TGI is 6.4 µM.
For `COC(=O)/C=C/c1cc(O)c2oc(-c3ccc(O)c(O)c3)c(C(=O)OC)c2c1` the same measures were 1.82 µM and 12.9 µM.
For the compound `O=S(=O)(Nc1cc(F)cc(Cl)c1)c1ccc(-c2cnc(C3CC3)o2)cc1`, the GI50 is 0.491 µM and the TGI turned out to be 6.78 µM.
Turning to `Clc1ccc2c(NCCCNc3nccc(Nc4ccc(Br)cc4)n3)ccnc2c1`, the GI50 was 1.61 µM and the TGI worked out at 3.21 µM.
`Ic1ccc(Nc2nc3nonc3nc2Nc2ccc(I)cc2)cc1`: the GI50 was 0.174 µM and the TGI amounted to 1.69 µM.
Consider `COc1ncnc(C2CC2)c1-c1ncc2cnn(Cc3ccc(-c4nc(C(F)(F)F)cn4C(C)C)cc3)c2n1`, for which the GI50 was 3.77 µM and the TGI turned out to be 38.3 µM.
Take `CCC[CH2][Sn]([CH2]CCC)([CH2]CCC)[O]C(=O)CC`: the GI50 was 0.127 µM and the TGI was found to be 0.258 µM.
In the case of `O=C(Nc1ccc(OS(=O)(=O)c2ccccc2)cc1)C12CC3CC(CC(C3)C1)C2`, the GI50 was 3.8 µM and the TGI is more than 100 µM.
`Cc1nc(N)sc1-c1ccnc(Nc2ccc(N3CCOCC3)cc2)n1`: the GI50 is 0.611 µM and the TGI was more than 100 µM.
With `COc1cc(C(=O)c2cc(C)c3[nH]c4ccc(Cl)cc4c3c2C)cc(OC)c1OC`, the GI50 was 0.0385 µM and the TGI is 4.84 µM.
As for `C=C(C=O)C1CCC2(C(=O)O)CCC3(C)C(CCC4C5(C)CCC(O)C(C)(C)C5CCC43C)C12` (centres undefined), the GI50 is 3.27 µM and the TGI stood at 20.6 µM.
As for `O=C1NC(=Nc2ccccc2)S/C1=C\c1ccc2ncccc2c1`, the GI50 was 2.06 µM and the TGI is more than 25 µM.
Regarding `Cc1c2cccnc2c(C)c2c1c1cc(CO)ccc1n2C`, the GI50 is 0.183 µM and the TGI was found to be 0.561 µM.
For `Cn1cc(C2=C(c3ccc4ccccc4c3)C(=O)NC2=O)c2ccccc21`, the GI50 is 6.24 µM and the TGI is more than 25 µM.
Turning to `COc1ccc(C(=O)c2cc(OC)c(C)c(OC)c2)cc1OC(=O)CCl`, the GI50 is 2.39 µM and the TGI came to 21.6 µM.
Regarding `Cc1ccc2c(n1)C(=O)c1[nH]c3ccccc3c1C2=O`, the GI50 was 0.51 µM and the TGI is 3.3 µM.
Consider `Cn1c(=O)c2c(nc(Nc3cc(=O)[nH]c(=O)[nH]3)n2Cc2ccccc2)n(C)c1=O`, for which the GI50 is 54.8 µM and the TGI is more than 100 µM.
For `COc1ccc2c(c1)C(C)Cc1c(Cl)ncnc1N2C` (centres undefined), the GI50 was 0.276 µM and the TGI was 0.804 µM.
For `COc1cc2c(cc1OC)C(Sc1ccc(C)cc1)c1c(nc(N)c(C#N)c1N)O2` (centres undefined) the same measures were 1.16 µM and 2.5 µM.
The matching figures for `COc1ccc(C2CC(c3cccc(Nc4ccncc4)c3)=NN2c2cc(Cl)cc(Cl)c2)cc1` (centres undefined): 1.63 µM and 3.29 µM.
Turning to `COc1cc(C2c3cc4c(cc3OC(N3CCCC3)C2C)OCO4)cc(OC)c1O` (centres undefined), the GI50 was 17.5 µM and the TGI was more than 100 µM.
On to `O=c1n(CC2CO2)c(=O)n(CC2CO2)c(=O)n1CC1CO1` (centres undefined), for which the GI50 is 2.26 µM and the TGI worked out at 11.3 µM.
`CNCCCn1cc(C2=C(c3cn(C)c4ccccc34)C(=O)NC2=O)c2ccccc21`: the GI50 was 3.59 µM and the TGI is 7.33 µM.
For the compound `C/C(=C\CCc1ccoc1)CC/C=C(\C)CCCC1=CC(=O)OC1`, the GI50 was 2.19 µM and the TGI came out at 8.41 µM.

The record behind these values is PubChem BioAssay (NCI).
